In experiment [1] the test system is Enterococcus faecalis EFS.312, Daptomycin resistant mutant (EFA). It counts as cell-based. To be noted: MHBc with 50 mg/L calcium, 18-20 hours at 37° C. The procedure:
(§1) Compounds according to Formula I were tested for antimicrobial activity against a panel of organisms. Aerobic organisms, Staphylococcus aureus, Enterococcus faecalis and E. faecium, were tested by broth microdilution according to Clinical and Laboratory Standards Institute (CLSI) document M7-A7 (Clinical and Laboratory Standards Institute. Methods for Dilution Antimicrobial Susceptibility Tests for Bacteria that Grow Aerobically; Approved Standard—Seventh Edition. CLSI document M7-A7 [ISBN 1-56238-587-9]. Clinical and Laboratory Standards Institute, 940 West Valley Road, Suite 1400, Wayne, Pa. 19087-1898 USA, 2006) with modifications as described below. Mueller Hinton Broth (MHBc) was supplemented with 50 mg/L calcium (equivalent to human physiological levels of calcium) and assay plates were incubated 18-20 hours at 37° C. with aeration (200 rpm).
(§2) In all cases the final concentration of dimethyl sulfoxide incubated with cells is less than or equal to 1%. For minimum inhibitory concentration (MIC) calculations, 2-fold dilutions of compounds were added to wells of a microtiter plate containing 5×10^5 bacteria in a final volume of 100 μL of media. Following incubation, (18-20 hours at 37° C. with aeration at 200 rpm) growth was confirmed visually by placing plates over a viewing apparatus (stand with a mirror underneath) and then the optical density (OD600) was measured using a SpectraMax 340PC^384 plate reader. Growth was defined as turbidity that could be detected with the naked eye or achieving minimum OD600of 0.1. MIC values (in μg/mL) were defined as the lowest concentration producing no visible turbidity.

The test system of experiment [2] is Staphylococcus aureus SAU.278, Daptomycin resistant mutant (D10). Type of experiment: cell-based. To be noted: MHBc with 50 mg/L calcium, 18-20 hours at 37° C. The procedure:
as §1, §2

The subject of experiment [3] is Enterococcus faecium EFM.384, Daptomycin resistant mutant (14-A). Type of experiment: cell-based. To be noted: MHBc with 50 mg/L calcium, 18-20 hours at 37° C. The method, then:
as §1, §2

SMILES strings stand for the structures. “And” between values parts separate entries of the source, which are not always exact repeats. Equal values may be shown once.

For the compound `CCCCCCc1ccc(C(=O)N[C@@H](Cc2c[nH]c3ccccc23)C(=O)N[C@H](CC(N)=O)C(=O)N[C@@H](CC(=O)O)C(=O)N[C@@H]2C(=O)NCC(=O)N[C@@H](CCCN)C(=O)N[C@@H](CC(=O)O)C(=O)N[C@H](C)C(=O)N[C@@H](CC(=O)O)C(=O)NCC(=O)N[C@H](CO)C(=O)N[C@@H]([C@H](C)CC(=O)O)C(=O)N[C@@H](CC(=O)c3ccccc3N)C(=O)O[C@@H]2C)cc1` [Compound 32], the “Efs312 MIC” value in experiment [1] was >32 µg/mL and 32 µg/mL.
As for `CCCCCCSc1ccc(-c2csc(C(=O)N[C@@H](Cc3c[nH]c4ccccc34)C(=O)N[C@H](CC(N)=O)C(=O)N[C@@H](CC(=O)O)C(=O)N[C@@H]3C(=O)NCC(=O)N[C@@H](CCCN)C(=O)N[C@@H](CC(=O)O)C(=O)N[C@H](C)C(=O)N[C@@H](CC(=O)O)C(=O)NCC(=O)N[C@H](CO)C(=O)N[C@@H]([C@H](C)CC(=O)O)C(=O)N[C@@H](CC(=O)c4ccccc4N)C(=O)O[C@@H]3C)c2)cc1` [Compound 57], in experiment [2], the “Sa278 MIC” value was 2 µg/mL and 4 µg/mL. The “C. diff MIC90” value with Clostridium difficile is 8 µg/mL.
As to `CCCCCCCC/C=C/CC(=O)N[C@@H](Cc1c[nH]c2ccccc12)C(=O)N[C@H](CC(N)=O)C(=O)N[C@@H](CC(=O)O)C(=O)N[C@@H]1C(=O)NCC(=O)N[C@@H](CCCN)C(=O)N[C@@H](CC(=O)O)C(=O)N[C@H](C)C(=O)N[C@@H](CC(=O)O)C(=O)NCC(=O)N[C@H](CO)C(=O)N[C@@H]([C@H](C)CC(=O)O)C(=O)N[C@@H](CC(=O)c2ccccc2N)C(=O)O[C@@H]1C` [Compound 4], the “Efs312 MIC” value in experiment [1] is 32 µg/mL and 16 µg/mL. Also, the “Efm384 MIC” value in experiment [3] is 8 µg/mL and 4 µg/mL.
In the case of `CCCCCCC(CCCC)C(=O)N[C@@H](Cc1c[nH]c2ccccc12)C(=O)N[C@H](CC(N)=O)C(=O)N[C@@H](CC(=O)O)C(=O)N[C@@H]1C(=O)NCC(=O)N[C@@H](CCCN)C(=O)N[C@@H](CC(=O)O)C(=O)N[C@H](C)C(=O)N[C@@H](CC(=O)O)C(=O)NCC(=O)N[C@H](CO)C(=O)N[C@@H]([C@H](C)CC(=O)O)C(=O)N[C@@H](CC(=O)c2ccccc2N)C(=O)O[C@@H]1C` (stereo partly shown) [Compound 8], in experiment [1], the “Efs312 MIC” value is over 32 µg/mL. In experiment [3], the “Efm384 MIC” value is 32 µg/mL and >32 µg/mL. In the experiment on Clostridium difficile, the “C. diff MIC90” value came to 8 µg/mL.
In the case of `CCCCCCC1CCC(c2ccc(C(=O)N[C@@H](Cc3c[nH]c4ccccc34)C(=O)N[C@H](CC(N)=O)C(=O)N[C@@H](CC(=O)O)C(=O)N[C@@H]3C(=O)NCC(=O)N[C@@H](CCCN)C(=O)N[C@@H](CC(=O)O)C(=O)N[C@H](C)C(=O)N[C@@H](CC(=O)O)C(=O)NCC(=O)N[C@H](CO)C(=O)N[C@@H]([C@H](C)CC(=O)O)C(=O)N[C@@H](CC(=O)c4ccccc4N)C(=O)O[C@@H]3C)cc2)CC1` (single isomer, unassigned) [54 isomer I], in the experiment on Clostridium difficile, the “C. diff MIC90” value amounted to 4 µg/mL.
Same read-out and setting: to `CCCCCCCC1CCC(C(=O)N[C@@H](Cc2c[nH]c3ccccc23)C(=O)N[C@H](CC(N)=O)C(=O)N[C@@H](CC(=O)O)C(=O)N[C@@H]2C(=O)NCC(=O)N[C@@H](CCCN)C(=O)N[C@@H](CC(=O)O)C(=O)N[C@H](C)C(=O)N[C@@H](CC(=O)O)C(=O)NCC(=O)N[C@H](CO)C(=O)N[C@@H]([C@H](C)CC(=O)O)C(=O)N[C@@H](CC(=O)c3ccccc3N)C(=O)O[C@@H]2C)CC1` (stereo partly shown) [Compound 19] belongs 0.250 µg/mL.

Source of the values: patent publication US20150337013A1, “NOVEL ANTIBACTERIAL AGENTS FOR THE TREATMENT OF GRAM POSITIVE INFECTIONS” (priority 2008, published 2015).
